Target: recombinant human His-ATG7 enzyme (Homo sapiens (Human), UniProt O95352)
Assay: ATG7 Enzyme Assay (HTRF/FRET, ATG3-GST and Flag-Gabarap)
Assay type: biochemical
Settings: for inhibition at 0.123 µM: Concentration 0.123 μM; for inhibition at 0.123 µM / inhibition at 0.111 µM: read-out: Percent Inhibition; for inhibition at 0.111 µM: Concentration 0.111 μM
Experimental: Example 97: ATG7 Enzyme Assay
The total volume of the ATG7 enzymatic assay is 50 μL and contains 50 mM HEPES Hemisodium (pH 7.5), 0.05% BSA, 0.01% Tween-20, 25 mM NaCl, 5 mM MgCl2, 10 μM ATP, 250 μM GSH, 5 nM ATG3-GST, 5 nM Flag-Gabarap, 100 μM TCEP and 0.15 nM recombinant human His-ATG7 enzyme. The enzymatic reaction mixture, with and without inhibitor, was incubated at 24° C. for 105 min in a 384-well plate before termination with […] of Stop/Detection buffer (0.1M HEPES Hemisodium pH 7.5, 0.05% Tween20, 20 mM EDTA, 410 mM KF, 0.53 nM Europium-Cryptate labeled monoclonal anti-Flag M2 Antibody (CisBio International) and 8.125 μg/ml PHYCOLINK goat anti-GST allophycocyanin (XL-APC) antibody (Prozyme)). After incubation for 2 hours at 24° C., quantification of FRET is performed on the Pherostar™ (BMG Labtech). Percentage inhibition values at a single concentration or enzyme inhibition (IC50) values are determined from those curves. One skilled in the art will appreciate that the values generated either as percentage inhibition at a single concentration or IC50 values are subject to experimental variation.

recombinant human His-ATG7 enzyme, sequence (O95352 whole entry): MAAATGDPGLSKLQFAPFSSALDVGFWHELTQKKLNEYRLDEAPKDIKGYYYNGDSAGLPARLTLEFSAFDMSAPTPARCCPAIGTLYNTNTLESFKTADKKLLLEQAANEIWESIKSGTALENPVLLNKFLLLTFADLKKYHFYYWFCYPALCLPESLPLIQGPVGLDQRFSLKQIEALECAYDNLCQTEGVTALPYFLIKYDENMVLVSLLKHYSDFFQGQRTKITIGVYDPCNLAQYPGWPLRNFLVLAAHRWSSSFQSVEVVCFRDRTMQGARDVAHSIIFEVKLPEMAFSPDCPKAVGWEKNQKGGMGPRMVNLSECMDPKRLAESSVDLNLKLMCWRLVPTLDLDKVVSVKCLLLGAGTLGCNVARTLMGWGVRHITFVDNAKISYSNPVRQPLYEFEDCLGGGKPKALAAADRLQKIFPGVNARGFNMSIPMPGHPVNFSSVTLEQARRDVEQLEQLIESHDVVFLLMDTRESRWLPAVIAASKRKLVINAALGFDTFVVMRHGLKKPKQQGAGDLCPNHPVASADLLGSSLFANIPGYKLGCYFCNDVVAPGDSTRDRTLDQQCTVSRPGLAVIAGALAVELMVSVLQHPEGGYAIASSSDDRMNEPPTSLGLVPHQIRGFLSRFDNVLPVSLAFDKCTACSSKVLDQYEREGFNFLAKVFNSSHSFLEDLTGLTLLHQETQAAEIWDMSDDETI

Compound | IC50 | inhibition at 0.123 µM | inhibition at 0.111 µM
N#CCc1nn([C@@H]2O[C@H](COS(N)(=O)=O)[C@@H](O)[C@H]2O)c2ncnc(N)c12 [Compound I-29, {(2R,3S,4R,5R)-5-[4-amino-3-(cyanomethyl)-1H-pyrazolo[3,4-d]pyrimidin-1-yl]-3,4-dihydroxytetrahydrofuran-2-yl}methyl Sulfamate] | > 500 nM | 26% | –
Nc1ncnc2c1c(Sc1cccc(Cl)c1)nn2[C@H]1C[C@H](O)[C@@H](COS(N)(=O)=O)O1 [Compound I-179, [(2R,3S,5R)-5-{4-amino-3-[(3-chlorophenyl)sulfanyl]-1H-pyrazolo[3,4-d]pyrimidin-1-yl}-3-hydroxytetrahydrofuran-2-yl]methyl sulfamate] | 100 to 500 nM | – | 50%
CC(O)CSc1nn([C@@H]2O[C@H](COS(N)(=O)=O)[C@@H](O)[C@H]2O)c2ncnc(N)c12 (single isomer, unassigned) [Compound I-55b, [(2R,3S,4R,5R)-5-(4-amino-3-{[(2R)-2-hydroxypropyl]sulfanyl}-1H-pyrazolo[3,4-d]pyrimidin-1-yl)-3,4-dihydroxytetrahydrofuran-2-yl]methyl sulfamate or [(2R,3S,4R,5R)-5-(4-amino-3-{[(2S)-2-hydroxypropyl]sulfanyl}-1H-pyrazolo[3,4-d]pyrimidin-1-yl)-3,4-dihydroxytetrahydrofuran-2-yl]methyl Sulfamate] | 50 to 100 nM | 68% | –
Nc1ncnc2c1c(SC1CC1)nn2[C@@H]1O[C@H](COS(N)(=O)=O)[C@@H](O)[C@H]1O [Compound I-65, {(2R,3S,4R,5R)-5-[4-amino-3-(cyclopropylsulfanyl)-1H-pyrazolo[3,4-d]pyrimidin-1-yl]-3,4-dihydroxytetrahydrofuran-2-yl}methyl Sulfamate] | < 20 nM | 89% | –
CCN(CC)CCSc1nn([C@@H]2O[C@H](COS(N)(=O)=O)[C@@H](O)[C@@H]2F)c2ncnc(N)c12 [Compound I-104, [(2R,3R,4S,5R)-5-(4-amino-3-{[2-(diethylamino)ethyl]sulfanyl}-1H-pyrazolo[3,4-d]pyrimidin-1-yl)-4-fluoro-3-hydroxytetrahydrofuran-2-yl]methyl sulfamate] | 100 to 500 nM | – | 38%
Nc1ncnc2c1c(Sc1ccc(Cl)cc1)nn2[C@@H]1O[C@H](COS(N)(=O)=O)[C@@H](O)[C@@H]1F [Compound I-133, [(2R,3R,4S,5R)-5-{4-amino-3-[(4-chlorophenyl)sulfanyl]-1H-pyrazolo[3,4-d]pyrimidin-1-yl}-4-fluoro-3-hydroxytetrahydrofuran-2-yl]methyl sulfamate] | 20 to 50 nM | – | 67%
CC(CO)Sc1nn([C@@H]2O[C@H](COS(N)(=O)=O)[C@@H](O)[C@@H]2F)c2ncnc(N)c12 (mixture of isomers) [Compound I-144, [(2R,3R,4S,5R)-5-(4-amino-3-{[(2R)-1-hydroxypropan-2-yl]sulfanyl}-1H-pyrazolo[3,4-d]pyrimidin-1-yl)-4-fluoro-3-hydroxytetrahydrofuran-2-yl]methyl sulfamate and [(2R,3R,4S,5R)-5-(4-amino-3-{[(2S)-1-hydroxypropan-2-yl]sulfanyl}-1H-pyrazolo[3,4-d]pyrimidin-1-yl)-4-fluoro-3-hydroxytetrahydrofuran-2-yl]methyl sulfamate] | 20 to 50 nM | – | 74%
Nc1ncnc2c1c(-c1ncco1)nn2[C@@H]1O[C@H](COS(N)(=O)=O)[C@@H](O)[C@H]1O [Compound I-57, {(2R,3S,4R,5R)-5-[4-amino-3-(1,3-oxazol-2-yl)-1H-pyrazolo[3,4-d]pyrimidin-1-yl]-3,4-dihydroxytetrahydrofuran-2-yl}methyl sulfamate] | > 500 nM | 13% | –
CCC(CC)Sc1nn([C@@H]2O[C@H](COS(N)(=O)=O)[C@@H](O)[C@@H]2F)c2ncnc(N)c12 [Compound I-120, {(2R,3R,4S,5R)-5-[4-amino-3-(pentan-3-ylsulfanyl)-1H-pyrazolo[3,4-d]pyrimidin-1-yl]-4-fluoro-3-hydroxytetrahydrofuran-2-yl}methyl sulfamate] | 100 to 500 nM | – | 46%
Nc1ncnc2c1c(Sc1ccc(Cl)cn1)nn2[C@H]1C[C@H](O)[C@H](COS(N)(=O)=O)O1 [Compound I-222, [(2S,3S,5R)-5-{4-amino-3-[(5-chloropyridin-2-yl)sulfanyl]-1H-pyrazolo[3,4-d]pyrimidin-1-yl}-3-hydroxytetrahydrofuran-2-yl]methyl sulfamate] | 50 to 100 nM | – | 59%
CC(=O)c1nn([C@@H]2O[C@H](COS(N)(=O)=O)[C@@H](O)[C@H]2O)c2ncnc(N)c12 [Compound I-21, [(2R,3S,4R,5R)-5-(3-acetyl-4-amino-1H-pyrazolo[3,4-d]pyrimidin-1-yl)-3,4-dihydroxytetrahydrofuran-2-yl]methyl Sulfamate] | 100 to 500 nM | 22% | –
CSc1nn([C@@H]2O[C@H](COS(N)(=O)=O)[C@@H](O)[C@H]2O)c2ncnc(N)c12 [Compound I-42, {(2R,3S,4R,5R)-5-[4-amino-3-(methylsulfanyl)-1H-pyrazolo[3,4-d]pyrimidin-1-yl]-3,4-dihydroxytetrahydrofuran-2-yl}methyl Sulfamate] | < 20 nM | – | 79%
Nc1ncnc2c1c(SC1CCC1)nn2[C@@H]1O[C@H](COS(N)(=O)=O)[C@@H](O)[C@H]1O [Compound I-56, {(2R,3S,4R,5R)-5-[4-amino-3-(cyclobutylsulfanyl)-1H-pyrazolo[3,4-d]pyrimidin-1-yl]-3,4-dihydroxytetrahydrofuran-2-yl}methyl sulfamate] | < 20 nM | – | 84%
Nc1ncnc2c1c(C(F)F)nn2[C@@H]1O[C@H](COS(N)(=O)=O)[C@@H](O)[C@H]1O [Compound I-25, {(2R,3S,4R,5R)-5-[4-amino-3-(difluoromethyl)-1H-pyrazolo[3,4-d]pyrimidin-1-yl]-3,4-dihydroxytetrahydrofuran-2-yl}methyl Sulfamate] | 50 to 100 nM | 64% | –
CC(Sc1nn([C@@H]2O[C@H](COS(N)(=O)=O)[C@@H](O)[C@@H]2F)c2ncnc(N)c12)C(F)(F)F (mixture of isomers) [Compound I-101, [(2R,3R,4S,5R)-5-(4-amino-3-{[(2R)-1,1,1-trifluoropropan-2-yl]sulfanyl}-1H-pyrazolo[3,4-d]pyrimidin-1-yl)-4-fluoro-3-hydroxytetrahydrofuran-2-yl]methyl Sulfamate and [(2R,3R,4S,5R)-5-(4-amino-3-{[(2S)-1,1,1-trifluoropropan-2-yl]sulfanyl}-1H-pyrazolo[3,4-d]pyrimidin-1-yl)-4-fluoro-3-hydroxytetrahydrofuran-2-yl]methyl Sulfamate] | > 500 nM | – | 13%
Nc1ncnc2c1c(Sc1ccc(Cl)cn1)nn2[C@@H]1O[C@H](COS(N)(=O)=O)[C@@H](O)[C@@H]1F [Compound I-146, [(2R,3R,4S,5R)-5-{4-amino-3-[(5-chloropyridin-2-yl)sulfanyl]-1H-pyrazolo[3,4-d]pyrimidin-1-yl}-4-fluoro-3-hydroxytetrahydrofuran-2-yl]methyl sulfamate] | 20 to 50 nM | – | 86%
